Experimental findings from US9126957B2, “Selective glycosidase inhibitors and uses thereof” (MERCK SHARP & DOHME CORP., priority 2011, dated 2015) are described below.

Broadly, the Ki is a measure of affinity in units of concentration, obtained from inhibition or displacement.

Chain of human O-GlcNAcase (O60502 whole entry): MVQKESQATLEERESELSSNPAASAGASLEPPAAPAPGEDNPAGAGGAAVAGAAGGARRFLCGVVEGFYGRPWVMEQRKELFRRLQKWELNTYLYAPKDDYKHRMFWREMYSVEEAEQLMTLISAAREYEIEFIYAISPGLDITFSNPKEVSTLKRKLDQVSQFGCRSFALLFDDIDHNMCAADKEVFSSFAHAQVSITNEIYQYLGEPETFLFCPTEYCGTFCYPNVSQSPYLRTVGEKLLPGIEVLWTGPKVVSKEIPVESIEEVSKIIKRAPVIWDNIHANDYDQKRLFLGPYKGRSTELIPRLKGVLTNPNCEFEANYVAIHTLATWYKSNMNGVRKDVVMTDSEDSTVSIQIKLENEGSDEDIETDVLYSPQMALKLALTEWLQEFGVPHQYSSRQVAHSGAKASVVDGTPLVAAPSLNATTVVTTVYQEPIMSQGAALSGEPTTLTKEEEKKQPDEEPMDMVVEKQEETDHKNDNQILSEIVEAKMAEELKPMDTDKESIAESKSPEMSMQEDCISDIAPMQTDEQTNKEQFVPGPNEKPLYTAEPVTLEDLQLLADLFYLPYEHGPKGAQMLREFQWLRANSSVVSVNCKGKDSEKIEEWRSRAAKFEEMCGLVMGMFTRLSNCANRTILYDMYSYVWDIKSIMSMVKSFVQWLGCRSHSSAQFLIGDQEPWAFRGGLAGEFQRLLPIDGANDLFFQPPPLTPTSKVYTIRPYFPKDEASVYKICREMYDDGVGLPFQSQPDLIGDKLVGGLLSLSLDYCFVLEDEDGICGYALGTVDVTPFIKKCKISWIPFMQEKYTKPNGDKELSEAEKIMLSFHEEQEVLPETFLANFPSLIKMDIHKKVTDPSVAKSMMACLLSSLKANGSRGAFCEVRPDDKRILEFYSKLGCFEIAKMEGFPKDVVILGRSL

The assay addresses human O-GlcNAcase (Homo sapiens (Human), UniProt O60502). Kind of assay: Fluorescence-based hOGA assay for determination of KI values for inhibition of O-GlcNAcase activity. Particulars: purified human O-GlcNAcase, 4-Methylumbelliferyl N-acetyl-β-D-glucosaminide substrate, pH 7.0, Cheng-Prusoff. Format: biochemical. On the procedure: Assay for determination of KI values for inhibition of O-GlcNAcase activity Experimental procedure for kinetic analyses
Enzymatic reactions are carried out in a reaction containing 50 mM NaH2PO4, 100 mM NaCl and 0.1% BSA (pH 7.0) using 2 mM 4-Methylumbelliferyl N-acetyl-β-D-glucosaminide dihydrate (Sigma M2133) dissolved in ddH2O, as a substrate. The amount of purified human O-GlcNAcase enzyme used in the reaction is 0.7 nM. Test compound of varying concentrations is added to the enzyme prior to initiation of the reaction. The reaction is performed at room temperature in a 96-well plate and is initiated with the addition of substrate. The production of fluorescent product is measured every 60 sec for 45 min with a Tecan Infinite M200 plate-reader with excitation at 355 nm and emission detected at […], with 4-Methylumbelliferone (Sigma M1381) used to produce a standard curve. The slope of product production is determined for each concentration of compound tested and plotted, using standard curve fitting algorithms for sigmoidal dose response curves. The values for a four parameter logistic curve fit of the data are determined.
KI values are determined using the Cheng-Prusoff equation; the Km of O-GlcNacase for substrate is 0.2 mM.
With `CCCNC1=N[C@@H]2[C@@H](O)[C@H](O)[C@@H]([C@H](C)O)C[C@@H]2O1` [Example 5, (3aR,4R,5R,6R,7aS)-6-((S)-1-hydroxyethyl)-2-(propylamino)-3a,4,5,6,7,7a-hexahydrobenzo[d] oxazole-4,5-diol], affinity was put at a Ki of 7.1 nM.

`C[C@H](O)[C@H]1C[C@@H]2SC(N(C)C)=N[C@@H]2[C@@H](O)[C@@H]1O` [Example 10, (3aR,4R,5R,6R,7aS)-2-(dimethylamino)-6-((S)-1-hydroxyethyl)-3a,4,5,6,7,7a-hexahydrobenzo[d]thiazole-4,5-diol]: the affinity corresponds to a Ki of 0.14 nM.

The compound `CNC1=N[C@@H]2[C@@H](O)[C@H](O)[C@@H]([C@H](C)O)C[C@@H]2O1` [Example 6, (3aR,4R,5R,6R,7aS)-6-((S)-1-hydroxyethyl)-2-(methylamino)-3a,4,5,6,7,7a-hexahydrobenzo[d] oxazole-4,5-diol] came in with a Ki of 0.26 nM.

`CN(C)C1=N[C@@H]2[C@@H](O)[C@H](O)[C@@H](C(C)(C)O)C[C@@H]2O1` [Example 3, (3aR,4R,5R,6S,7aS)-2-(Dimethylamino)-6-(2-hydroxypropan-2-yl)-3a,4,5,6,7,7a-hexahydro-benzo[d]oxazole-4,5-diol] yielded a Ki of 54 nM.

`CCNC1=N[C@@H]2[C@@H](O)[C@H](O)[C@@H](C(C)(C)O)C[C@@H]2O1` [Example 7, (3aR,4R,5R, 6S,7aS)-2-(ethylamino)-6-(2-hydroxy-propan-2-yl)-3a,4,5,6,7,7a-hexahydro-benzo[d] oxazole-4,5-diol] had a Ki of 93 nM. Compared with the last compound, the Ki is about 1.7-fold higher.

`C[C@@H](O)[C@H]1C[C@@H]2OC(N(C)C)=N[C@@H]2[C@@H](O)[C@@H]1O` [Example 1A, (3aR,4R,5R,6R,7aS)-2-(Dimethylamino)-6-((R)-1-hydroxyethyl)-3a,4,5,6,7,7a-hexahydrobenzo[d]oxazole-4,5-diol] gave a Ki of 4.5 nM.

Turning to `C[C@@H](O)[C@@H]1C[C@H]2OC(N(C)C)=N[C@H]2[C@H](O)[C@H]1O` (single isomer, unassigned) [Example 4], affinity was put at a Ki of 437 nM.

On to `CCCNC1=N[C@@H]2[C@@H](O)[C@H](O)[C@@H](C(C)(C)O)C[C@@H]2O1` [Example 8, (3aR,4R,5R, 6S,7aS)-6-(2-hydroxy-propan-2-yl)-2-(propylamino)-3a,4,5,6,7,7a-hexahydro-benzo[d] oxazole-4,5-diol], for which affinity was put at a Ki of 1670 nM.

In the case of `C[C@H](O)[C@H]1C[C@@H]2OC(N(C)C)=N[C@@H]2[C@@H](O)[C@@H]1O` [Example 2, (3aR,4R,5R,6R,7aS)-2-(Dimethylamino)-6-((S)-1-hydroxyethyl)-3a,4,5,6,7,7a-hexahydro-benzo[d]oxazole-4,5-diol], the inhibitory constant (Ki) came out at 0.26 nM. Against the preceding compound, the Ki is about 6400-fold lower.

Compound `C[C@@H](O)[C@H]1C[C@@H]2SC(N(C)C)=N[C@@H]2[C@@H](O)[C@@H]1O` [Example 9] displayed a Ki of 14 nM.
